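Each compound was tested at five concentrations against cells in 96-well plates for 48 hours. The concentration for 50% growth inhibition is given as GI50. TGI is the concentration that stops growth completely.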
How the values were obtained:
Assay in all cases: inhibition of tumour cell growth, NCI panel, 48 h
MOLT-4 leukemia = system: MOLT-4 leukemia
MDA-MB-435 = system: MDA-MB-435
HCC-2998 colon = system: HCC-2998 colon
OVCAR-5 ovarian = system: OVCAR-5 ovarian
HCT-116 colon = system: HCT-116 colon
BT-549 breast = system: BT-549 breast
TK-10 renal = system: TK-10 renal
MCF7 breast = system: MCF7 breast
SK-MEL-2 melanoma = system: SK-MEL-2 melanoma
HOP-92 NSCLC = system: HOP-92 NSCLC
HL-60(TB) leukemia = system: HL-60(TB) leukemia
EKVX NSCLC = system: EKVX NSCLC
MDA-MB-231 breast = system: MDA-MB-231 breast
ACHN renal = system: ACHN renal
A549 NSCLC = system: A549 NSCLC
MALME-3M melanoma = system: MALME-3M melanoma
UACC-62 melanoma = system: UACC-62 melanoma
LOX IMVI melanoma = system: LOX IMVI melanoma
KM12 colon = system: KM12 colon
A498 renal = system: A498 renal
SF-539 CNS = system: SF-539 CNS
786-0 renal = system: 786-0 renal
T-47D breast = system: T-47D breast
SK-OV-3 ovarian = system: SK-OV-3 ovarian
SN12C renal = system: SN12C renal
PC-3 prostate = system: PC-3 prostate
MDA-MB-468 breast = system: MDA-MB-468 breast
NCI-H226 lung = system: NCI-H226 lung
DU-145 prostate = system: DU-145 prostate
SNB-19 CNS = system: SNB-19 CNS
HCT-15 colon = system: HCT-15 colon
UACC-257 melanoma = system: UACC-257 melanoma
IGROV1 ovarian = system: IGROV1 ovarian
HT29 colon = system: HT29 colon
OVCAR-4 ovarian = system: OVCAR-4 ovarian
M14 melanoma = system: M14 melanoma
HOP-62 NSCLC = system: HOP-62 NSCLC
CCRF-CEM leukemia = system: CCRF-CEM leukemia
HS 578T breast = system: HS 578T breast
RXF 393 renal = system: RXF 393 renal
K-562 leukemia = system: K-562 leukemia
NCI-H23 lung = system: NCI-H23 lung
NCI-H522 lung = system: NCI-H522 lung
SK-MEL-28 melanoma = system: SK-MEL-28 melanoma
NCI/ADR-RES ovarian = system: NCI/ADR-RES ovarian
OVCAR-3 ovarian = system: OVCAR-3 ovarian
SW-620 colon = system: SW-620 colon
COLO 205 colon = system: COLO 205 colon
SF-295 CNS = system: SF-295 CNS
UO-31 renal = system: UO-31 renal
SNB-75 CNS = system: SNB-75 CNS
SK-MEL-5 melanoma = system: SK-MEL-5 melanoma
SR leukemia = system: SR leukemia
CAKI-1 renal = system: CAKI-1 renal
NCI-H460 lung = system: NCI-H460 lung

With `[2H]C([2H])([2H])Oc1ccc2ncc(C#Cc3cncc(C(=O)Nc4ccc(CN5CCN(C)CC5)c(C(F)(F)F)c4)c3)n2n1` the GI50 (MOLT-4 leukemia) was 66.8 nM, the TGI (MOLT-4 leukemia) was 2020 nM and the GI50 (MDA-MB-435) was 321 nM. It also gave a TGI (MDA-MB-435) of 1770 nM, a GI50 (HCC-2998 colon) of 1030 nM and a TGI (HCC-2998 colon) of 2700 nM. The GI50 (OVCAR-5 ovarian) was 507 nM, the TGI (OVCAR-5 ovarian) was 1800 nM and the GI50 (HCT-116 colon) was 67.7 nM. The TGI (HCT-116 colon) was 1240 nM, the GI50 (BT-549 breast) was 833 nM and the TGI (BT-549 breast) was 10400 nM. The GI50 (TK-10 renal) was 3170 nM, the TGI (TK-10 renal) was 7630 nM and the GI50 (MCF7 breast) was 50.3 nM. The TGI (MCF7 breast) was 1460 nM, the GI50 (SK-MEL-2 melanoma) was 1090 nM and the TGI (SK-MEL-2 melanoma) was 6340 nM. For the same compound, the GI50 (HOP-92 NSCLC) was 173 nM, the TGI (HOP-92 NSCLC) was 833 nM and the GI50 (HL-60(TB) leukemia) was 101 nM. It also gave a TGI (HL-60(TB) leukemia) of 1990 nM, a GI50 (EKVX NSCLC) of 606 nM and a TGI (EKVX NSCLC) of 2220 nM. For the same compound, the GI50 (MDA-MB-231 breast) was 278 nM, the TGI (MDA-MB-231 breast) was 1530 nM and the GI50 (ACHN renal) was 574 nM. The TGI (ACHN renal) was 11200 nM, the GI50 (A549 NSCLC) was 742 nM and the TGI (A549 NSCLC) was 2370 nM. For the same compound, the GI50 (MALME-3M melanoma) was 291 nM, the TGI (MALME-3M melanoma) was 1490 nM and the GI50 (UACC-62 melanoma) was 5270 nM. For the same compound, the TGI (UACC-62 melanoma) was 21000 nM, the GI50 (LOX IMVI melanoma) was 446 nM and the TGI (LOX IMVI melanoma) was 1800 nM. It also gave a GI50 (KM12 colon) of 9.42 nM, a TGI (KM12 colon) of 1350 nM and a GI50 (A498 renal) of 8640 nM. The TGI (A498 renal) was 27800 nM, the GI50 (SF-539 CNS) was 112 nM and the TGI (SF-539 CNS) was 1060 nM. For the same compound, the GI50 (786-0 renal) was 1370 nM, the TGI (786-0 renal) was 2660 nM and the GI50 (T-47D breast) was 12100 nM. The TGI (T-47D breast) was 57300 nM, the GI50 (SK-OV-3 ovarian) was 4030 nM and the TGI (SK-OV-3 ovarian) was 18600 nM. It also gave a GI50 (SN12C renal) of 498 nM, a TGI (SN12C renal) of 1810 nM and a GI50 (PC-3 prostate) of 940 nM. For the same compound, the TGI (PC-3 prostate) was 2350 nM, the GI50 (MDA-MB-468 breast) was 1200 nM and the TGI (MDA-MB-468 breast) was 2950 nM. The GI50 (NCI-H226 lung) was 124 nM, the TGI (NCI-H226 lung) was 2590 nM and the GI50 (DU-145 prostate) was 930 nM. It also gave a TGI (DU-145 prostate) of 2150 nM, a GI50 (SNB-19 CNS) of 1390 nM and a TGI (SNB-19 CNS) of 2640 nM. For the same compound, the GI50 (HCT-15 colon) was 387 nM, the TGI (HCT-15 colon) was 1640 nM and the GI50 (UACC-257 melanoma) was 995 nM. It also gave a TGI (UACC-257 melanoma) of 3730 nM, a GI50 (IGROV1 ovarian) of 581 nM and a TGI (IGROV1 ovarian) of 2040 nM. It also gave a GI50 (HT29 colon) of 303 nM, a TGI (HT29 colon) of 1410 nM and a GI50 (OVCAR-4 ovarian) of 1000 nM. For the same compound, the TGI (OVCAR-4 ovarian) was 2630 nM, the GI50 (M14 melanoma) was 377 nM and the TGI (M14 melanoma) was 1620 nM. The GI50 (HOP-62 NSCLC) was 656 nM, the TGI (HOP-62 NSCLC) was 4540 nM and the GI50 (CCRF-CEM leukemia) was 43 nM. For the same compound, the TGI (CCRF-CEM leukemia) was 3740 nM, the GI50 (HS 578T breast) was 444 nM and the TGI (HS 578T breast) was 6360 nM. It also gave a GI50 (RXF 393 renal) of 1150 nM, a TGI (RXF 393 renal) of 2500 nM and a GI50 (K-562 leukemia) of 9.42 nM. For the same compound, the TGI (K-562 leukemia) was 94200 nM, the GI50 (NCI-H23 lung) was 350 nM and the TGI (NCI-H23 lung) was 1630 nM. It also gave a GI50 (NCI-H522 lung) of 1140 nM, a TGI (NCI-H522 lung) of 7230 nM and a GI50 (SK-MEL-28 melanoma) of 1160 nM. It also gave a TGI (SK-MEL-28 melanoma) of 2410 nM, a GI50 (NCI/ADR-RES ovarian) of 1180 nM and a TGI (NCI/ADR-RES ovarian) of 2650 nM. The GI50 (OVCAR-3 ovarian) was 1600 nM, the TGI (OVCAR-3 ovarian) was 5830 nM and the GI50 (SW-620 colon) was 167 nM. The TGI (SW-620 colon) was 1180 nM, the GI50 (COLO 205 colon) was 238 nM and the TGI (COLO 205 colon) was 719 nM. It also gave a GI50 (SF-295 CNS) of 839 nM, a TGI (SF-295 CNS) of 7230 nM and a GI50 (UO-31 renal) of 1030 nM. It also gave a TGI (UO-31 renal) of 2220 nM, a GI50 (SNB-75 CNS) of 1920 nM and a TGI (SNB-75 CNS) of 6090 nM. The GI50 (SK-MEL-5 melanoma) was 2270 nM, the TGI (SK-MEL-5 melanoma) was 6890 nM and the GI50 (SR leukemia) was 60.6 nM. The TGI (SR leukemia) was 94200 nM, the GI50 (CAKI-1 renal) was 619 nM and the TGI (CAKI-1 renal) was 4540 nM. The GI50 (NCI-H460 lung) was 239 nM and the TGI (NCI-H460 lung) was 1810 nM.

From PubChem BioAssay (NCI)
